Experimental data taken from patent US10770169B2, “Method of providing a treatment to a subject based on a dynamic pathway map” (THE REGENTS OF THE UNIVERSITY OF CALIFORNIA, priority 2010, dated 2020).
Like-named read-outs stand apart in the source and are kept apart here.

Assays:
[1] = system: panel of 55 breast cancer cell lines; test: Cell growth inhibition assay (Cell Titer Glo, 72 h, 9 doses; GI50, TGI, LC50); assay type: cell-based, human
[2] = system: luminal, basal, claudin-low and ERBB2AMP breast cancer cell lines; test: Associations of clinically relevant subtypes and response (non-parametric ANOVA or t-test on GI50 ranks); assay type: cell-based, human; settings: Table 6; most sensitive subtype, FDR p<0.20
How it was run: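 GI50 values were compared between cell-line subtype groups by non-parametric ANOVA or t-test on ranks. P-values from three test sets were combined and FDR-corrected. Significant three-group effects were followed by post-hoc comparison of each group against all others, and FDR p<0.20 counted as significant.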

In the case of `NC(=O)Nc1sc(-c2ccc(F)cc2)cc1C(N)=O` [TPCA-1], the GI50 ([1]; BT20 cell line, censored GI50 values, value is the negative log10 of mol/L) is reported as 4.36, the GI50 ([1]; HCC38 cell line, censored GI50 values, value is the negative log10 of mol/L) is reported as 5.50 and the GI50 ([1]; HCC70 cell line, censored GI50 values, value is the negative log10 of mol/L) is reported as 5.44. It also gave a GI50 ([1]; HCC1143 cell line, censored GI50 values, value is the negative log10 of mol/L) of 5.07, a GI50 ([1]; HCC1187 cell line, censored GI50 values, value is the negative log10 of mol/L) of 5.67 and a GI50 ([1]; HCC1395 cell line, censored GI50 values, value is the negative log10 of mol/L) of 5.22. For the same molecule, the GI50 ([1]; HCC1419 cell line, censored GI50 values, value is the negative log10 of mol/L) was 5.53, the GI50 ([1]; HCC1428 cell line, censored GI50 values, value is the negative log10 of mol/L) was 5.45 and the GI50 ([1]; HCC1500 cell line, censored GI50 values, value is the negative log10 of mol/L) was 5.39. The GI50 ([1]; HCC1806 cell line, censored GI50 values, value is the negative log10 of mol/L) was 5.34, the GI50 ([1]; HCC1954 cell line, censored GI50 values, value is the negative log10 of mol/L) was 4.77 and the GI50 ([1]; HCC2185 cell line, censored GI50 values, value is the negative log10 of mol/L) was 5.36. The GI50 ([1]; HCC3153 cell line, censored GI50 values, value is the negative log10 of mol/L) was 4.87, the GI50 ([1]; LY2 cell line, censored GI50 values, value is the negative log10 of mol/L) was 4.54 and the GI50 ([1]; MDAMB134VI cell line, censored GI50 values, value is the negative log10 of mol/L) was 4.79. The GI50 ([1]; MDAMB231 cell line, censored GI50 values, value is the negative log10 of mol/L) was 4.45, the GI50 ([1]; MDAMB361 cell line, censored GI50 values, value is the negative log10 of mol/L) was 4.18 and the GI50 ([1]; MDAMB436 cell line, censored GI50 values, value is the negative log10 of mol/L) was 5.16. The GI50 ([1]; MDAMB468 cell line, censored GI50 values, value is the negative log10 of mol/L) was 5.94, the GI50 ([1]; SUM52PE cell line, censored GI50 values, value is the negative log10 of mol/L) was 6.25 and the GI50 ([1]; SUM149PT cell line, censored GI50 values, value is the negative log10 of mol/L) was 5.78. The GI50 ([1]; SUM159PT cell line, censored GI50 values, value is the negative log10 of mol/L) was 5.81, the GI50 ([1]; SUM1315MO2 cell line, censored GI50 values, value is the negative log10 of mol/L) was 6.09 and the GI50 ([1]; UACC893 cell line, censored GI50 values, value is the negative log10 of mol/L) was 5.21. For the same molecule, the GI50 ([1]; cell line 600MPE, value is the negative log10 of mol/L) was 4.18, the GI50 ([1]; cell line AU565, value is the negative log10 of mol/L) was 4.18 and the GI50 ([1]; cell line BT20, value is the negative log10 of mol/L) was 4.36. It also gave a GI50 ([1]; cell line BT474, value is the negative log10 of mol/L) of 4.18, a GI50 ([1]; cell line BT549, value is the negative log10 of mol/L) of 4.18 and a GI50 ([1]; cell line HCC38, value is the negative log10 of mol/L) of 5.50. It also gave a GI50 ([1]; cell line HCC70, value is the negative log10 of mol/L) of 5.44, a GI50 ([1]; cell line HCC202, value is the negative log10 of mol/L) of 3.88 and a GI50 ([1]; cell line HCC1143, value is the negative log10 of mol/L) of 5.07. It also gave a GI50 ([1]; cell line HCC1187, value is the negative log10 of mol/L) of 5.67, a GI50 ([1]; cell line HCC1395, value is the negative log10 of mol/L) of 5.22 and a GI50 ([1]; cell line HCC1419, value is the negative log10 of mol/L) of 5.53. For the same molecule, the GI50 ([1]; cell line HCC1428, value is the negative log10 of mol/L) was 5.45, the GI50 ([1]; cell line HCC1500, value is the negative log10 of mol/L) was 5.39 and the GI50 ([1]; cell line HCC1806, value is the negative log10 of mol/L) was 5.34. For the same molecule, the GI50 ([1]; cell line HCC1937, value is the negative log10 of mol/L) was 4.18, the GI50 ([1]; cell line HCC1954, value is the negative log10 of mol/L) was 4.77 and the GI50 ([1]; cell line HCC2185, value is the negative log10 of mol/L) was 5.36. The GI50 ([1]; cell line HCC3153, value is the negative log10 of mol/L) was 4.87, the GI50 ([1]; cell line LY2, value is the negative log10 of mol/L) was 4.54 and the Subtype specificity [2] was “Basal + Claudin-low”.
Work on `CC/C(=C(\c1ccccc1)c1ccc(OCCN(C)C)cc1)c1ccccc1` [Tamoxifen] yielded a GI50 ([1]; Homo sapiens, 600MPE cell line, censored GI50 values, read-out: GI50 (converted)) of 47.9 µM, a GI50 ([1]; Homo sapiens, AU565, AU565 cell line, censored GI50 values, read-out: GI50 (converted)) of 28.8 µM and a GI50 ([1]; Homo sapiens, AU565, cell line AU565, read-out: GI50 (converted)) of 28.8 µM. The GI50 ([1]; Homo sapiens, BT-474, BT474 cell line, censored GI50 values, read-out: GI50 (converted)) was 2.4 µM, the GI50 ([1]; Homo sapiens, BT-474, cell line BT474, read-out: GI50 (converted)) was 2.4 µM and the GI50 ([1]; Homo sapiens, BT-483, BT483 cell line, censored GI50 values, read-out: GI50 (converted)) was 24 µM. For the same molecule, the GI50 ([1]; Homo sapiens, BT-483, cell line BT483, read-out: GI50 (converted)) was 24 µM, the GI50 ([1]; Homo sapiens, BT-549, cell line BT549, read-out: GI50 (converted)) was 166 µM and the GI50 ([1]; Homo sapiens, CAMA-1, CAMA1 cell line, censored GI50 values, read-out: GI50 (converted)) was 34.7 µM. For the same molecule, the GI50 ([1]; Homo sapiens, CAMA-1, cell line CAMA1, read-out: GI50 (converted)) was 34.7 µM, the GI50 ([1]; Homo sapiens, HCC38, HCC38 cell line, censored GI50 values, read-out: GI50 (converted)) was 52.5 µM and the GI50 ([1]; Homo sapiens, HCC38, cell line HCC38, read-out: GI50 (converted)) was 52.5 µM. The GI50 ([1]; Homo sapiens, HCC70, cell line HCC70, read-out: GI50 (converted)) was 166 µM, the GI50 ([1]; Homo sapiens, HCC202, HCC202 cell line, censored GI50 values, read-out: GI50 (converted)) was 29.5 µM and the GI50 ([1]; Homo sapiens, HCC202, cell line HCC202, read-out: GI50 (converted)) was 29.5 µM. For the same molecule, the GI50 ([1]; Homo sapiens, HCC1143, HCC1143 cell line, censored GI50 values, read-out: GI50 (converted)) was 16.2 µM, the GI50 ([1]; Homo sapiens, HCC1143, cell line HCC1143, read-out: GI50 (converted)) was 16.2 µM and the GI50 ([1]; Homo sapiens, HCC1395, HCC1395 cell line, censored GI50 values, read-out: GI50 (converted)) was 14.5 µM. The GI50 ([1]; Homo sapiens, HCC1395, cell line HCC1395, read-out: GI50 (converted)) was 14.5 µM, the GI50 ([1]; Homo sapiens, HCC1419, HCC1419 cell line, censored GI50 values, read-out: GI50 (converted)) was 33.1 µM and the GI50 ([1]; Homo sapiens, HCC1419, cell line HCC1419, read-out: GI50 (converted)) was 33.1 µM. It also gave a GI50 ([1]; Homo sapiens, HCC1428, HCC1428 cell line, censored GI50 values, read-out: GI50 (converted)) of 3.24 µM, a GI50 ([1]; Homo sapiens, HCC1428, cell line HCC1428, read-out: GI50 (converted)) of 3.24 µM and a GI50 ([1]; Homo sapiens, HCC1500, HCC1500 cell line, censored GI50 values, read-out: GI50 (converted)) of 105 µM. The GI50 ([1]; Homo sapiens, HCC1500, cell line HCC1500, read-out: GI50 (converted)) was 105 µM, the GI50 ([1]; Homo sapiens, HCC1806, HCC1806 cell line, censored GI50 values, read-out: GI50 (converted)) was 13.2 µM and the GI50 ([1]; Homo sapiens, HCC1806, cell line HCC1806, read-out: GI50 (converted)) was 13.2 µM. It also gave a GI50 ([1]; Homo sapiens, HCC1937, cell line HCC1937, read-out: GI50 (converted)) of 166 µM, a GI50 ([1]; Homo sapiens, HCC1954, HCC1954 cell line, censored GI50 values, read-out: GI50 (converted)) of 97.7 µM and a GI50 ([1]; Homo sapiens, HCC1954, cell line HCC1954, read-out: GI50 (converted)) of 97.7 µM. For the same molecule, the GI50 ([1]; Homo sapiens, HCC2185 cell line, censored GI50 values, read-out: GI50 (converted)) was 14.1 µM, the GI50 ([1]; Homo sapiens, LY2 cell line, censored GI50 values, read-out: GI50 (converted)) was 56.2 µM and the GI50 ([1]; Homo sapiens, MCF7, MCF7 cell line, censored GI50 values, read-out: GI50 (converted)) was 102 µM. For the same molecule, the GI50 ([1]; Homo sapiens, MCF7, cell line MCF7, read-out: GI50 (converted)) was 102 µM, the GI50 ([1]; Homo sapiens, MDA-MB-134-VI, MDAMB134VI cell line, censored GI50 values, read-out: GI50 (converted)) was 83.2 µM and the GI50 ([1]; Homo sapiens, MDA-MB-175-VII, MDAMB175VII cell line, censored GI50 values, read-out: GI50 (converted)) was 14.5 µM. For the same molecule, the GI50 ([1]; Homo sapiens, MDA-MB-415, MDAMB415 cell line, censored GI50 values, read-out: GI50 (converted)) was 33.9 µM, the GI50 ([1]; Homo sapiens, MDA-MB-436, MDAMB436 cell line, censored GI50 values, read-out: GI50 (converted)) was 30.9 µM and the GI50 ([1]; Homo sapiens, MDA-MB-453, MDAMB453 cell line, censored GI50 values, read-out: GI50 (converted)) was 36.3 µM. The GI50 ([1]; Homo sapiens, SK-BR-3, SKBR3 cell line, censored GI50 values, read-out: GI50 (converted)) was 105 µM, the GI50 ([1]; Homo sapiens, SUM52PE, SUM52PE cell line, censored GI50 values, read-out: GI50 (converted)) was 91.2 µM and the GI50 ([1]; Homo sapiens, SUM149PT, SUM149PT cell line, censored GI50 values, read-out: GI50 (converted)) was 102 µM. For the same molecule, the GI50 ([1]; Homo sapiens, SUM185PE, SUM185PE cell line, censored GI50 values, read-out: GI50 (converted)) was 8.91 µM, the GI50 ([1]; Homo sapiens, SUM1315MO2, SUM1315MO2 cell line, censored GI50 values, read-out: GI50 (converted)) was 100 µM and the GI50 ([1]; Homo sapiens, UACC-893, UACC893 cell line, censored GI50 values, read-out: GI50 (converted)) was 3.09 µM. For the same molecule, the GI50 ([1]; Homo sapiens, ZR-75B, ZR75B cell line, censored GI50 values, read-out: GI50 (converted)) was 16.2 µM, the GI50 ([1]; Homo sapiens, cell line 600MPE, read-out: GI50 (converted)) was 47.9 µM and the GI50 ([1]; Homo sapiens, cell line HCC2185, read-out: GI50 (converted)) was 14.1 µM. The GI50 ([1]; Homo sapiens, cell line HCC3153, read-out: GI50 (converted)) was 166 µM, the GI50 ([1]; Homo sapiens, cell line LY2, read-out: GI50 (converted)) was 56.2 µM and the Subtype specificity [2] was “Luminal”.
